The values below come from ChEMBL document CHEMBL1201862, “PubChem BioAssay data set” (2004).

Among the test systems are UO-31; KM12; MCF7; TK-10; SK-OV-3; T47D; Malme-3M; 786-0; OVCAR-4; HCC 2998; NCI/ADR-RES; UACC-257; HCT-15; COLO 205; CAKI-1; HOP-92; MOLT-4; SW-620; NCI-H460; SF-295.
Test in all cases: NCI tumour cell line growth inhibition, 48 h

The structures appear in SMILES notation.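 Exposure lasted 48 hours, with cells grown in 96-well plates and compounds tested at five concentrations. Here, GI50 denotes the concentration required for 50% inhibition of growth.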 Activity calls are given as the source filed them. Cut-off read from the data, not from the text of the source: active = GI50 up to about 1.1 µM and inactive = higher.

Take `c1ccc(CCCN2C3CCC2CN(CCOC(c2ccccc2)c2ccccc2)C3)cc1`: the GI50 was 12.2 µM (inactive) with UO-31; 5.66 µM (inactive) in the assay on KM12; 12.6 µM (inactive) with MCF7; 12.5 µM (inactive) in the assay with TK-10; 13.7 µM (inactive) in the assay with SK-OV-3; 3.24 µM (inactive) with T47D. Further, the GI50 with Malme-3M was 12.5 µM (inactive); in the assay on 786-0, 10 µM (inactive); in the assay with OVCAR-4 it was 10.2 µM (inactive); in the assay with HCC 2998 it was 5.21 µM (inactive); in the assay on NCI/ADR-RES it was 8.17 µM (inactive); with UACC-257, 8.49 µM (inactive). In addition, the GI50 is 4.72 µM with HCT-15; 1.68 µM (inactive) in the assay with COLO 205; 11.3 µM (inactive) in the assay with CAKI-1; 12.5 µM (inactive) in the assay with HOP-92; 8.43 µM (inactive) in the assay on MOLT-4; 15.6 µM (inactive) in the assay with SW-620. Besides, the GI50 with NCI-H460 was 8.75 µM (inactive); in the assay on SF-295, 12.2 µM (inactive).

`CC1NC(C(=O)O)Cc2cc(O)c(O)cc21` (stereo not given): the GI50 with UO-31, with KM12, with MCF7, in the assay on TK-10, in the assay on SK-OV-3 and in the assay on T47D was > 100 µM (inactive) in each case. In addition, the GI50 in the assay on Malme-3M, in the assay on 786-0, in the assay on OVCAR-4, in the assay with HCC 2998, with NCI/ADR-RES and in the assay on UACC-257 was > 100 µM (inactive) throughout. Moreover, the GI50 in the assay with HCT-15 was greater than 100 µM; in the assay with COLO 205, > 100 µM (inactive); with CAKI-1, > 100 µM (inactive); in the assay on HOP-92, > 100 µM (inactive); in the assay with MOLT-4, > 100 µM (inactive); in the assay with SW-620, > 100 µM (inactive). The GI50 in the assay with NCI-H460 and with SF-295 was > 100 µM (inactive) throughout.

Consider `COc1cccc2c1C(CO)N1C(C#N)C3CC(C(=O)O)C(C1C2)N3C` (stereo not given), for which the GI50 in the assay with UO-31 was 1.59 µM (inactive); with KM12, 1.98 µM (inactive); in the assay with MCF7 it was 0.272 µM (active); in the assay on TK-10, 2.11 µM (inactive); in the assay on SK-OV-3, 3.6 µM (inactive); in the assay on T47D it was 0.324 µM (active). The GI50 is 1.92 µM (inactive) in the assay on Malme-3M; 1.3 µM (inactive) in the assay on 786-0; 4.91 µM (inactive) in the assay with OVCAR-4; 0.405 µM (active) in the assay with HCC 2998; 0.367 µM (active) in the assay with NCI/ADR-RES; 1.66 µM (inactive) with UACC-257. The GI50 was 1.43 µM with HCT-15; 1.26 µM (inactive) with COLO 205; 1.29 µM (inactive) with CAKI-1; 1.99 µM (inactive) with HOP-92; 1.48 µM (inactive) in the assay on MOLT-4; 2.71 µM (inactive) in the assay on SW-620. Besides, the GI50 with NCI-H460 is 5.19 µM (inactive); in the assay on SF-295 it was 4.7 µM (inactive).

Take `C=C(CCC/C(C)=C/C=C/[C@]1(C)CCCc2ccoc21)CC(=O)O`: the GI50 with UO-31 is > 100 µM (inactive); in the assay on KM12, > 100 µM (inactive); with MCF7, 82.6 µM (inactive); in the assay with TK-10 it was > 100 µM (inactive); with SK-OV-3, > 100 µM (inactive); in the assay on T47D it was > 100 µM (inactive). Further, the GI50 in the assay with Malme-3M, in the assay with 786-0, in the assay with OVCAR-4, with HCC 2998, in the assay on NCI/ADR-RES and in the assay with UACC-257 was > 100 µM (inactive) throughout. Further, the GI50 in the assay on HCT-15 is 98.9 µM; in the assay with COLO 205, > 100 µM (inactive); with CAKI-1 it was > 100 µM (inactive); in the assay with HOP-92 it was > 100 µM (inactive); in the assay with MOLT-4, 38.7 µM (inactive); in the assay with SW-620, > 100 µM (inactive). Moreover, the GI50 in the assay with NCI-H460 and in the assay with SF-295 was > 100 µM (inactive) throughout.

On to `Cn1c(=O)c2c(no[n+]2[O-])c2ccccc21`, for which the GI50 with UO-31 was 24.3 µM (inactive); in the assay with KM12, 12.4 µM (inactive); in the assay with MCF7, 24.7 µM (inactive); in the assay on TK-10 it was 27.8 µM (inactive); in the assay on SK-OV-3, 33 µM (inactive); in the assay on T47D, 21.6 µM (inactive). Further, the GI50 in the assay on Malme-3M was 14.2 µM (inactive); in the assay on 786-0 it was 15.5 µM (inactive); in the assay on OVCAR-4, 18.4 µM (inactive); in the assay with HCC 2998, 12.9 µM (inactive); in the assay on NCI/ADR-RES it was 20.8 µM (inactive); in the assay on UACC-257 it was 15.3 µM (inactive). Moreover, the GI50 was 11.1 µM with HCT-15; 17.7 µM (inactive) in the assay on COLO 205; 18.2 µM (inactive) in the assay with CAKI-1; 20.2 µM (inactive) in the assay with HOP-92; 10.5 µM (inactive) in the assay with MOLT-4; 20 µM (inactive) in the assay on SW-620. In addition, the GI50 with NCI-H460 was 17.8 µM (inactive); in the assay on SF-295, 21.6 µM (inactive).

With `c1ccc(CC(Nc2cccnc2)c2ccccc2)cc1` (stereo not given), the GI50 is 19.7 µM (inactive) in the assay on UO-31; 24.2 µM (inactive) in the assay with KM12; 28.9 µM (inactive) with MCF7; 32.2 µM (inactive) in the assay with TK-10; 31.7 µM (inactive) with SK-OV-3; 28.1 µM (inactive) with T47D. Moreover, the GI50 in the assay with Malme-3M was 29 µM (inactive); with 786-0, 21.3 µM (inactive); with OVCAR-4, 25.7 µM (inactive); in the assay on HCC 2998, 21.2 µM (inactive); in the assay on NCI/ADR-RES, 21.9 µM (inactive); in the assay on UACC-257, 22 µM (inactive). Also, the GI50 in the assay on HCT-15 was 30.3 µM; with COLO 205, 19.8 µM (inactive); with CAKI-1, 32.4 µM (inactive); in the assay with HOP-92 it was 17.4 µM (inactive); in the assay on MOLT-4, 16.4 µM (inactive); with SW-620 it was 33 µM (inactive). The GI50 in the assay with NCI-H460 was 23 µM (inactive); in the assay with SF-295, 18.5 µM (inactive).

For `CCOc1ccc2c(c1)c(=O)c1c(NCCN(CC)CC)ccc3nnn2c31`, the GI50 in the assay on UO-31 was 3.4 µM (inactive); with KM12, 14 µM (inactive); with MCF7 it was 12.3 µM (inactive); in the assay with TK-10, 16.7 µM (inactive); in the assay on SK-OV-3, > 100 µM (inactive); in the assay with T47D it was > 100 µM (inactive). Further, the GI50 in the assay with Malme-3M is 17.1 µM (inactive); in the assay with 786-0, > 32.8 µM (inactive); with OVCAR-4, 11.9 µM (inactive); with HCC 2998, > 33.6 µM (inactive); in the assay on NCI/ADR-RES, 12.3 µM (inactive); in the assay with UACC-257, > 41.6 µM (inactive). For the same molecule, the GI50 was 16.9 µM in the assay on HCT-15; 33.9 µM (inactive) in the assay on COLO 205; 20.7 µM (inactive) in the assay on CAKI-1; 29.2 µM (inactive) with HOP-92; 3.34 µM (inactive) in the assay on MOLT-4; 12.6 µM (inactive) with SW-620. Moreover, the GI50 was 10.9 µM (inactive) in the assay on NCI-H460 and > 35.6 µM (inactive) with SF-295.

Regarding `c1ccc2sc(SSSc3nc4ccccc4s3)nc2c1`, the GI50 was > 100 µM (inactive) in the assay on UO-31; > 100 µM (inactive) in the assay with KM12; 44.1 µM (inactive) in the assay with MCF7; > 100 µM (inactive) in the assay with TK-10; > 100 µM (inactive) with SK-OV-3; 32 µM (inactive) with T47D. Besides, the GI50 with Malme-3M was > 100 µM (inactive); in the assay on 786-0, 44.4 µM (inactive); in the assay on OVCAR-4, > 100 µM (inactive); with HCC 2998, > 100 µM (inactive); in the assay with NCI/ADR-RES, > 100 µM (inactive); with UACC-257 it was 49.8 µM (inactive). For the same molecule, the GI50 in the assay with HCT-15 was 27.7 µM; with COLO 205, > 100 µM (inactive); in the assay on CAKI-1, > 100 µM (inactive); with HOP-92, > 100 µM (inactive); in the assay on MOLT-4, 77.3 µM (inactive); in the assay with SW-620, > 100 µM (inactive). Besides, the GI50 in the assay with NCI-H460 was 44.7 µM (inactive); in the assay on SF-295, > 100 µM (inactive).

For the molecule `CC1CCC2(C(=O)O)CCC3(C)C(=CCC4C5(C)CC(O)C(O)C(C)(CO)C5C(O)CC43C)C2C1C` (stereo not given), the GI50 is > 100 µM (inactive) with UO-31; 43.3 µM (inactive) in the assay on KM12; 41.5 µM (inactive) in the assay with MCF7; > 100 µM (inactive) in the assay with TK-10; > 100 µM (inactive) with SK-OV-3; 37.4 µM (inactive) in the assay with T47D. For the same molecule, the GI50 with Malme-3M is 47.5 µM (inactive); with 786-0, 3.29 µM (inactive); with OVCAR-4 it was > 100 µM (inactive); with HCC 2998 it was 35.9 µM (inactive); in the assay with NCI/ADR-RES it was > 100 µM (inactive); in the assay on UACC-257 it was 98.4 µM (inactive). The GI50 in the assay with HCT-15 was greater than 100 µM; in the assay on COLO 205 it was 50 µM (inactive); with CAKI-1, > 100 µM (inactive); with HOP-92, 20.8 µM (inactive); in the assay on MOLT-4, 58.2 µM (inactive); with SW-620, > 100 µM (inactive). Also, the figures for the GI50 in the assay with NCI-H460 and with SF-295 were > 100 µM (inactive) and 74.5 µM (inactive), respectively.

As to `O=c1c(Cc2cccc(Cc3c(O)oc4ccccc4c3=O)c2)c(O)oc2ccccc12`, the GI50 in the assay on UO-31 was > 100 µM (inactive); in the assay on KM12, > 100 µM (inactive); in the assay with MCF7, 62.4 µM (inactive); in the assay with TK-10, > 100 µM (inactive); in the assay with SK-OV-3, > 100 µM (inactive); in the assay on T47D it was > 100 µM (inactive). Further, the GI50 in the assay on Malme-3M, in the assay with 786-0, in the assay on OVCAR-4, with HCC 2998, with NCI/ADR-RES and with UACC-257 was > 100 µM (inactive) in each case. Moreover, the GI50 in the assay on HCT-15 is greater than 100 µM; with COLO 205, > 100 µM (inactive); with CAKI-1, > 100 µM (inactive); with HOP-92, > 100 µM (inactive); with MOLT-4, > 100 µM (inactive); in the assay with SW-620, > 100 µM (inactive). For the same molecule, the GI50 in the assay with NCI-H460 and in the assay on SF-295 was > 100 µM (inactive) each time.
